Laboratory results from ChEMBL document CHEMBL5053549, “Discovery of Potent and Novel Dual PARP/BRD4 Inhibitors for Efficient Treatment of Pancreatic Cancer” (J Med Chem, 2021).
The source made the active and inactive calls. No cut-off for these calls is given here.

Tests used:
[1] = test system: SW1990; experiment: Induction of cell cycle arrest in human SW1990 cells assessed as accumulation of cells at S phase at 2 uM incubated for 4 days by propidium iodide staining based flow cytometry (reference value: 29.32%); type: functional; settings: time 4 day
[2] = target: Bromodomain-containing protein 4 (Homo sapiens, UniProt O60885); experiment: Inhibition of BRD4 expression in human SW1990 cells at 1 uM after 4 days by Q-PCR analysis; type: cell-based; settings: time 4.0 day
[3] = test system: Mus musculus; experiment: Inhibition of homologous recombinant repair in human SW1990 cells xenografted in BALB/c mouse assessed as reduction in Rad51 expression at 45 mg/kg, ip after 4 days by immunohistochemical analysis; type: functional, organism-based; settings: time 4.0 day
[4] = test system: Mus musculus; experiment: Effect on cell cycle progression in human SW1990 cells xenografted in BALB/c mouse assessed as reduction in CCND1 expression at 45 mg/kg, ip after 4 days by Western blot analysis; type: functional, organism-based; settings: time 4.0 day
[5] = test system: SW1990; experiment: Induction of cell cycle arrest in human SW1990 cells assessed as accumulation of cells at G2/M phase at 2 uM incubated for 4 days by propidium iodide staining based flow cytometry (reference value: 5.89%); type: functional; settings: time 4 day
[6] = test system: SW1990; experiment: Effect on cell cycle progression in human SW1990 cells assessed as reduction in CCND1 expression at 1 to 2 uM after 4 days by Western blot analysis; type: functional, cell-based; settings: dose 1-2 µM, time 4.0 day
[7] = test system: SW1990; experiment: Induction of DNA damage in human SW1990 cells assessed as increase in gammaH2AX at 1 to 2 uM incubated for 4 days by immunofluorescence assay; type: functional, cell-based; settings: dose 1-2 µM, time 4.0 day
[8] = test system: SW1990; experiment: Effect on cell cycle progression in human SW1990 cells assessed as reduction in CDK6 expression at 1 to 2 uM after 4 days by Q-PCR analysis; type: functional, cell-based; settings: dose 1-2 µM, time 4.0 day
[9] = test system: Mus musculus; experiment: Effect on cell cycle progression in human SW1990 cells xenografted in BALB/c mouse assessed as reduction in PLK1 expression at 45 mg/kg, ip after 4 days by Q-PCR analysis; type: functional, organism-based; settings: time 4.0 day
[10] = test system: SW1990; experiment: Induction of autophagy in human SW1990 cells xenografted in BALB/c mouse assessed as increase in beclin1 expression at 45 mg/kg, ip after 4 days by Western blot analysis; type: functional, organism-based; settings: time 4.0 day
[11] = test system: Mus musculus; experiment: Effect on cell cycle progression in human SW1990 cells xenografted in BALB/c mouse assessed as reduction in CDK6 expression at 45 mg/kg, ip after 4 days by Q-PCR analysis; type: functional, organism-based; settings: time 4.0 day
[12] = test system: SW1990; experiment: Antiproliferative activity against human SW1990 cells assessed as reduction in cell viability after 4 days by MTT assay; type: functional, cell-based; settings: SW1990, 96 h
[13] = test system: SW1990; experiment: Inhibition of homologous recombinant repair in human SW1990 cells assessed as reduction in c-Myc expression at 1 to 2 uM after 4 days by Western blot analysis; type: functional, cell-based; settings: dose 1-2 µM, time 4.0 day
[14] = test system: SW1990; experiment: Induction of apoptosis in human SW1990 cells assessed as early apoptotic cells at 2 uM after 4 days by Annexin V-FITC and propidium iodide staining based flow cytometry (reference value: […]%); type: functional; settings: time 4 day
[15] = target: Poly [ADP-ribose] polymerase 1 (Homo sapiens, UniProt P09874); experiment: Inhibition of PARP1 expression in human SW1990 cells at 1 uM after 4 days by Western blot analysis; type: cell-based; settings: time 4.0 day
Chain of Poly [ADP-ribose] polymerase 1 (P09874 whole entry): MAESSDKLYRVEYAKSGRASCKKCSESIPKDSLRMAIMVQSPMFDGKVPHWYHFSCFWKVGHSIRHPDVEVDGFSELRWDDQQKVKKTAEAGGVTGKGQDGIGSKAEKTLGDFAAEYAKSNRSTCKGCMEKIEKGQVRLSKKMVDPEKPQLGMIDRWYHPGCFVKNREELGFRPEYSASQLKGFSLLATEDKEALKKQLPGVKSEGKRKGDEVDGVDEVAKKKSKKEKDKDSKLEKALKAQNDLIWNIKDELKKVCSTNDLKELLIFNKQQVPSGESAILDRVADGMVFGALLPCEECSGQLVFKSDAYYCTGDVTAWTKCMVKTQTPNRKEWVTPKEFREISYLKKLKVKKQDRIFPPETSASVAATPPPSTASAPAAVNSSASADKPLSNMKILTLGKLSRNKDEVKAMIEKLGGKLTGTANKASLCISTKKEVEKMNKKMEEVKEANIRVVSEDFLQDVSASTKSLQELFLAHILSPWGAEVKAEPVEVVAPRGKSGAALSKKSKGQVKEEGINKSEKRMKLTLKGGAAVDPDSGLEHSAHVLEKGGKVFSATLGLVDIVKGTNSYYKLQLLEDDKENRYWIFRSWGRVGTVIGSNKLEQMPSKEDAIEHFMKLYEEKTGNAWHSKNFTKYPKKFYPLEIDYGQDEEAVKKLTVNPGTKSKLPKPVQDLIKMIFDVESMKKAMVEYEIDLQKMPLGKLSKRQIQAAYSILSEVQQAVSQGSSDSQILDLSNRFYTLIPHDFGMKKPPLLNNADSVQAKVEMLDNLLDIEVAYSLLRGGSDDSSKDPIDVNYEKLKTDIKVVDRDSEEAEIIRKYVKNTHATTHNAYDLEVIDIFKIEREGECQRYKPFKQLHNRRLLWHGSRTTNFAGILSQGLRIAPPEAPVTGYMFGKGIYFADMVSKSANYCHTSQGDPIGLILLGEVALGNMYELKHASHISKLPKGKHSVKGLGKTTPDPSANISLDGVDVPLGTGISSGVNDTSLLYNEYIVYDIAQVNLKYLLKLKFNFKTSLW

[16] = test system: SW1990; experiment: Effect on cell cycle progression in human SW1990 cells assessed as reduction in PLK1 expression at 1 to 2 uM after 4 days by Western blot analysis; type: functional, cell-based; settings: dose 1-2 µM, time 4.0 day
[17] = test system: CAPAN-1; experiment: Antiproliferative activity against human CAPAN-1 cells assessed as reduction in cell viability after 4 days by MTT assay; type: functional, cell-based; settings: CAPAN-1, 96 h
[18] = test system: SW1990; experiment: Induction of autophagy in human SW1990 cells xenografted in BALB/c mouse assessed as increase in LC3B expression at 45 mg/kg, ip after 4 days by Q-PCR analysis; type: functional, organism-based; settings: time 4.0 day
[19] = test system: MDA-MB-231; experiment: Antiproliferative activity against human MDA-MB-231 cells assessed as reduction in cell viability after 7 days; type: functional, cell-based; settings: MDA-MB-231, 168 h
[20] = test system: SW1990; experiment: Induction of autophagy in human SW1990 cells assessed as increase in Beclin1 expression at 1 to 2 uM incubated for 4 days by immunofluorescence assay; type: functional, cell-based; settings: dose 1-2 µM, time 4.0 day
[21] = target: Histone acetyltransferase p300 (Homo sapiens, UniProt Q09472); experiment: Inhibition of P300 (unknown orign) using acetyl-CoA as substrate preincubated for 30 mins followed by substrate addition measured after 1 hr by microplate reader analysis
Chain of Histone acetyltransferase p300 (Q09472 whole entry): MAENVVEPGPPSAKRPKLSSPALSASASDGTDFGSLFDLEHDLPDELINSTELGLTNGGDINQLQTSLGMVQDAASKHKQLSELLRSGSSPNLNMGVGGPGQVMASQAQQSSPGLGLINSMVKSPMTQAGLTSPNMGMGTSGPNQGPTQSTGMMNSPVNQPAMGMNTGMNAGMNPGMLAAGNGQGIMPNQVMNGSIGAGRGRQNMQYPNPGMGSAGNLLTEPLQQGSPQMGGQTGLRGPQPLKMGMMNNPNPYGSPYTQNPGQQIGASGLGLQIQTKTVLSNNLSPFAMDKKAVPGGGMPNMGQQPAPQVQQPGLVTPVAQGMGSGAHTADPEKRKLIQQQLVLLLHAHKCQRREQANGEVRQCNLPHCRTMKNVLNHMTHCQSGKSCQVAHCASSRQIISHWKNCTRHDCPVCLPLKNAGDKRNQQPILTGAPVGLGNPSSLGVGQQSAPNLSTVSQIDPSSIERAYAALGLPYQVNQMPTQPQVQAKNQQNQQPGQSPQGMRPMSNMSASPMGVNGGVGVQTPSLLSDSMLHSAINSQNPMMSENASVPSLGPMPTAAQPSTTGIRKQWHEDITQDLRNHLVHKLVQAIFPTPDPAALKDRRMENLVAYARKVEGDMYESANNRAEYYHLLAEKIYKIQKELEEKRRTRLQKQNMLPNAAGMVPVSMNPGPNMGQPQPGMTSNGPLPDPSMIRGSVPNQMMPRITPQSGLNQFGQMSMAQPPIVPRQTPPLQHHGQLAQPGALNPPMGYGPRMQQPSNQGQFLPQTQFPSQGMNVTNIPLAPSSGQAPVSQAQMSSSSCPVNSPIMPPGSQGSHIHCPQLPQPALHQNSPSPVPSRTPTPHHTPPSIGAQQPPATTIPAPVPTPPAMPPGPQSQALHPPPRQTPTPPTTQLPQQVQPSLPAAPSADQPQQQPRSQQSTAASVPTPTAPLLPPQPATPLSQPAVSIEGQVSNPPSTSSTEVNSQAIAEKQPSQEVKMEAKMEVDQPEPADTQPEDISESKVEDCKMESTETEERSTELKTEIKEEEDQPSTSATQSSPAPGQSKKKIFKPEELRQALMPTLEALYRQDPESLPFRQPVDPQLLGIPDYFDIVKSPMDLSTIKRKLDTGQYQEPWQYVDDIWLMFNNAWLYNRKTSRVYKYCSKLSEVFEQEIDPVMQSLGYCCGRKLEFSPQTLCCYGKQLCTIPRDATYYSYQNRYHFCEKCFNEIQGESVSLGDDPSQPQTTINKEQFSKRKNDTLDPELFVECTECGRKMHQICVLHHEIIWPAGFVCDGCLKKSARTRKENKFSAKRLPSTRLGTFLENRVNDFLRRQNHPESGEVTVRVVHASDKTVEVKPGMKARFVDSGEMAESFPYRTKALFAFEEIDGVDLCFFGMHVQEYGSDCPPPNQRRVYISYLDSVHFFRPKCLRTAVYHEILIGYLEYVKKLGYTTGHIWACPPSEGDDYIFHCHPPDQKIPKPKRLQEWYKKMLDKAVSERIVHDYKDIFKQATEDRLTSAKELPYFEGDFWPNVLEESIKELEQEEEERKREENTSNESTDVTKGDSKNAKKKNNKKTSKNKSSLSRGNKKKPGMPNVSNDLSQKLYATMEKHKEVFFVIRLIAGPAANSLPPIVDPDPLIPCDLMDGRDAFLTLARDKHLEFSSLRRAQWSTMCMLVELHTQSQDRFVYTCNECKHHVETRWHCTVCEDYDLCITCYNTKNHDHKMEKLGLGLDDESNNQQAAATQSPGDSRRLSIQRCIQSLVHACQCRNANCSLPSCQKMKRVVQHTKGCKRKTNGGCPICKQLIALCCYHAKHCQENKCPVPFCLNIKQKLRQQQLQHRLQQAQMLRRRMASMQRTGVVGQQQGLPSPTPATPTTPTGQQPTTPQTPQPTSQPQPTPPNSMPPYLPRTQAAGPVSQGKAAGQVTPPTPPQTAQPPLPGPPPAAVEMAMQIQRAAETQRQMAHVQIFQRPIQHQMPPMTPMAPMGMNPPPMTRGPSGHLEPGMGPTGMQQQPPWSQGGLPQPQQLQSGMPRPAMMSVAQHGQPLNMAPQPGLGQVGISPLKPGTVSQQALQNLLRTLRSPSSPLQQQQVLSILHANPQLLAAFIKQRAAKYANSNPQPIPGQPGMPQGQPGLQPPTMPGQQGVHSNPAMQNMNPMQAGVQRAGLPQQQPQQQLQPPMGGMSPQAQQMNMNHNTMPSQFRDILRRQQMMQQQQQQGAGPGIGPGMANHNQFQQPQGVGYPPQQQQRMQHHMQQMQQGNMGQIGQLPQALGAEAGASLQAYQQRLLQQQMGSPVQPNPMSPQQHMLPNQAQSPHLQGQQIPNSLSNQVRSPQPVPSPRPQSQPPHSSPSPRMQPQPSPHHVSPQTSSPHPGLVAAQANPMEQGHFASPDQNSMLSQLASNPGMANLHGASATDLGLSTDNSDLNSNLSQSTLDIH

[22] = target: Bromodomain-containing protein 3 (Homo sapiens, UniProt Q15059); experiment: Inhibition of recombinant BRD3 BD2 (unknown origin) incubated for 120 mins by TR-FRET assay
Chain of Bromodomain-containing protein 3 (Q15059 whole entry): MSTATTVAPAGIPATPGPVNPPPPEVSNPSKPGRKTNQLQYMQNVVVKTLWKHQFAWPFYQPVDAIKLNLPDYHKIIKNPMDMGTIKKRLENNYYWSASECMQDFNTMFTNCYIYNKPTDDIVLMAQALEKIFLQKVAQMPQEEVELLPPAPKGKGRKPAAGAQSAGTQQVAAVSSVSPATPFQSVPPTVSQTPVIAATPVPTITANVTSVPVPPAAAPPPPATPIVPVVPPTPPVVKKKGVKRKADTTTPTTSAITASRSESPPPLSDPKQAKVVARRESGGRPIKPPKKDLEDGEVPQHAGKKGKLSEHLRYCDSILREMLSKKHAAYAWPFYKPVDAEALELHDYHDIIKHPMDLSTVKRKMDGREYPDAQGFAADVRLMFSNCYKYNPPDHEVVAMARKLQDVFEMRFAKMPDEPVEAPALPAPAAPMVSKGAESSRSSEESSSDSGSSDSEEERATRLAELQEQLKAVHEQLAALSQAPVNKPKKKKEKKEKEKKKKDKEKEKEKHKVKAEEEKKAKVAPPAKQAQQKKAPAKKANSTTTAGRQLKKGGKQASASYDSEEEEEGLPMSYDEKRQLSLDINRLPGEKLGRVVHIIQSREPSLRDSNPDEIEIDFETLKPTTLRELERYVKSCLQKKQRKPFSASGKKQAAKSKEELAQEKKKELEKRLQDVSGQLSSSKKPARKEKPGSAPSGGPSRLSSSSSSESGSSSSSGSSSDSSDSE

[23] = test system: SW1990; experiment: Induction of autophagy in human SW1990 cells xenografted in BALB/c mouse assessed as increase in ATG5 expression at 45 mg/kg, ip after 4 days by Western blot analysis; type: functional, organism-based; settings: time 4.0 day
[24] = test system: CFPAC-1; experiment: Antiproliferative activity against human CFPAC-1 cells assessed as reduction in cell viability after 4 days by MTT assay; type: functional, cell-based; settings: CFPAC-1, 96 h, read-out: IC50
[25] = test system: SW1990; experiment: Induction of cell cycle arrest in human SW1990 cells assessed as accumulation of cells at G0/G1 phase at 4 uM incubated for 4 days by propidium iodide staining based flow cytometry (reference value: 64.79%); type: functional; settings: time 4 day
[26] = test system: Mus musculus; experiment: Toxicity in BALB/c mouse xenografted with human SW1990 cells assessed as liver damage at 15 mg/kg, ip administered for 28 consecutive days in presence of 45 mg/kg Olaparib; type: organism-based; settings: in vivo, 672 h, time 28 day
[27] = test system: SW1990; experiment: Induction of cell cycle arrest in human SW1990 cells assessed as accumulation of cells at S phase at 4 uM incubated for 4 days by propidium iodide staining based flow cytometry (reference value: 29.32%); type: functional; settings: time 4 day
[28] = test system: SW1990; experiment: Induction of apoptosis in human SW1990 cells assessed as necrotic cells at 1 uM after 4 days in presence of 3 uM Olaparib by Annexin V-FITC and propidium iodide staining based flow cytometry (reference value: 1.89%); type: functional; settings: time 4 day
[29] = test system: Mus musculus; experiment: Toxicity in BALB/c mouse xenografted with human SW1990 cells assessed as kidney damage at 15 mg/kg, ip administered for 28 consecutive days by H and E staining based […] microscopic analysis; type: organism-based; settings: in vivo, 672 h, time 28 day
[30] = test system: SW1990; experiment: Induction of DNA damage in human SW1990 cells assessed as increase in gammaH2AX at 4 uM incubated for 4 days by immunofluorescence assay; type: functional, cell-based; settings: time 4.0 day
[31] = test system: SW1990; experiment: Inhibition of homologous recombinant repair in human SW1990 cells assessed as reduction in BRCA1 expression at 4 uM after 4 days by Western blot analysis; type: functional, cell-based; settings: time 4.0 day
[32] = test system: SW1990; experiment: Inhibition of homologous recombinant repair in human SW1990 cells assessed as reduction in Olaparib-induced BRCA1 expression at 1 uM after 4 days in presence of Olaparib by Q-PCR analysis; type: functional, cell-based; settings: time 4.0 day
[33] = test system: SW1990; experiment: Inhibition of homologous recombinant repair in human SW1990 cells assessed as reduction in Olaparib-induced FOXM1 expression at 1 uM after 4 days in presence of Olaparib by Q-PCR analysis; type: functional, cell-based; settings: time 4.0 day
[34] = test system: SW1990; experiment: Inhibition of homologous recombinant repair in human SW1990 cells assessed as reduction in Olaparib-induced FOXM1 expression at 1 uM after 4 days in presence of Olaparib by Western blot analysis; type: functional, cell-based; settings: time 4.0 day

Structure (SMILES): CC[C@@H]1C(=O)N(C)c2cnc(N(C)c3ccc(-c4nc5c(C(N)=O)cccc5[nH]4)cc3OC)nc2N1C1CCCC1
- Activity [1]: 9.21%
- inhibition [2]: Active
- inhibition [3]: Active
- Activity [4]: Active
- Activity [5]: 13.22%
- Activity [6]: Active
- Activity [7]: Active
- Activity [8]: Active
- Activity [9]: Active
- Activity [10]: Active
- Activity [11]: Active
- IC50 [12]: 980 nM
- inhibition [13]: Active
- Activity [14]: 2.81%
- inhibition [15]: Active
- Activity [16]: Active
- IC50 [17]: 1560 nM
- Activity [18]: Active
- IC50 [19]: 340 nM
- Activity [20]: Active
- IC50 [21]: 59400 nM
- IC50 [22]: 123 nM
- Activity [23]: Active
- IC50 [24]: 1160 nM

Structure (SMILES): Cc1sc2c(c1C)C(c1ccc(Cl)cc1)=N[C@@H](CC(=O)OC(C)(C)C)c1nnc(C)n1-2
- Activity [25]: 75.06%
- Activity [26]: Non-Toxic
- Activity [27]: 19.43%
- Activity [28]: 5.53%
- IC50 [12]: 3740 nM
- IC50 [17]: 2440 nM
- Activity [29]: Non-Toxic
- IC50 [19]: 640 nM
- Activity [30]: Active
- inhibition [31]: Active
- inhibition [32]: Active
- IC50 [21]: 19400 nM
- inhibition [33]: Active
- IC50 [24]: 1560 nM
- inhibition [34]: Active
